Results taken from US20060063707A1, “Compositions for enhancing memory and methods therefor” (Lifelike Biomatic, Inc., priority 2004, published 2006).
Entries after “also recorded” stand apart in the source; their conditions may differ.

Experiments:
[1] = system: scopolamine-induced learning and memory deficits; test: Morris water maze, scopolamine-induced learning deficits (escape latency); assay type: in vivo, Male Wistar rats
Method: Learning and memory performance: Learning and memory performances were tested in the conventional Morris water maze according to the following procedure. The Morris maze includes a circular water tank (150 cm in diameter) filled with water and maintained at 27° C. with an escape platform (15 cm in diameter) 18 cm from the perimeter always in the same position 2 cm beneath the surface of the water. The water is made opaque by addition of milk powder rendering the platform invisible.
Male Wistar rats (200-230 g body weight, maintained in standard laboratory conditions) were given a single training session on one day. A training session consists of 4 consecutive trials (T1-T4) in the Morris water maze separated by 60 seconds. For each trial the animal is placed in the maze at one of two starting points equidistant from the escape platform and allowed to find the escape platform. The animal is left on the escape platform for 60 seconds before starting a new trial. […] During the 4 trials the animals start the maze twice from each starting point in a randomly determined order per animal. The time the animal takes to find the escape platform is referred to as the “escape latency.”
Measure of escape latency in control and test animals: The ampakine, the nemdakine, and the combination of ampakine and nemdakine of the present invention were administered p.o. to test animals 60 minutes before a test session in the maze (t=−60 min). Scopolamine was administered i.p. to induce learning and memory deficits 30 minutes later, i.e., 30 minutes before the test session in the maze (t=−30 min). Scopolamine induces amnesia as shown by the failure of scopolamine-treated animals to reduce their escape latencies from trial to trial. […]
The principal measure taken at each trial was the escape latency. Measures consisted in the time the animals took to find the platform and were analyzed by ANOVA with repeated measures. […]

LTP = conditions: agent alone; cited from earlier work
GluR4 flip [2] = target: T1, GluR4 flip (Homo sapiens, UniProt P48058); test: Potentiation of L-glutamate mediated currents on HEK cells expressing GluR4 flip (Ornstein et al.); assay type: cell-based
T1 construct: expressed in transfected cells; host or cells: HEK cells
T1 sequence (P48058 21-902): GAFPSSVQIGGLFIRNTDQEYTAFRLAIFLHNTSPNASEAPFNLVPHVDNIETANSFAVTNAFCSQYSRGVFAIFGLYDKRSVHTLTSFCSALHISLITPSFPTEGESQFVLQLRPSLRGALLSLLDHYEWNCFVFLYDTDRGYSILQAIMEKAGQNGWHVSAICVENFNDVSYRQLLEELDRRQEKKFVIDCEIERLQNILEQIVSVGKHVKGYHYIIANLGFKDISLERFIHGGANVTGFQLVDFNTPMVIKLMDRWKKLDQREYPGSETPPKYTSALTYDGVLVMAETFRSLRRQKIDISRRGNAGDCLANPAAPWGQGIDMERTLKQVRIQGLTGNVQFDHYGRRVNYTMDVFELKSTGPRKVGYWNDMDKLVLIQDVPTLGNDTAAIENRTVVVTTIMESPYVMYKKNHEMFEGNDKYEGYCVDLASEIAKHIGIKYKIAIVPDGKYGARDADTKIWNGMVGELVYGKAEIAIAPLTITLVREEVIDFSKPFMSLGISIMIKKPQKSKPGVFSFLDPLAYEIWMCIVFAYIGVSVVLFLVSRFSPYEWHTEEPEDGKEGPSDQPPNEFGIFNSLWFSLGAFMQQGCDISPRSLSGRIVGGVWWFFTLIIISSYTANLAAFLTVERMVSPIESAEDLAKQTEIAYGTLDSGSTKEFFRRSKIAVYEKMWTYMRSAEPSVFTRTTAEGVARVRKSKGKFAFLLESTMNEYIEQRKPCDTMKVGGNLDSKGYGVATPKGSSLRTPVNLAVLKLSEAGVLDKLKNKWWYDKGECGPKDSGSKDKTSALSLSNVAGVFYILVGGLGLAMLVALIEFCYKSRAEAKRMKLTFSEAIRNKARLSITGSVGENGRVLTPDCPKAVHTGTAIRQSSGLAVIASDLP
Method: From a study of the structure-activity relationship of the compounds of Ornstein (Ornstein, et al., 2000, ibid), a derivative of LY404187 designated 22h was chosen to provide the ampakine functionality of the new fusion molecule. The structural difference between LY404187 and the 22h derivative is that 22h has an amino substituent on the distal aromatic ring of the biphenyl group instead of a cyano substituent.

[3] = system: AMPA-induced currents in cerebellar Purkinje cells as well as in hippocampal pyramidal neurons; test: Increase of AMPA-induced currents in neurons (Gates et al.); assay type: cell-based
From the text: The ampakine functionality of LB-253-4c is a biarylpropylsulfonamide (Ornstein et al., ibid). […] The new fusion molecule, LB-253-4c, therefore, likely has a different mode of action compared to that of cyclothiazide, a mode of action more directed towards deactivation instead of desensitization.

GluR4 flip [4] = target: T1, GluR4 flip; conditions: HEK cells expressing GluR4 flip; read-out: potentiation of the L-glutamate mediated currents; cited from earlier work
[5] = system: adult mice hippocampal slices; test: LTP induction in hippocampal slices (EPSP slopes in CA1 after theta-burst stimulation); assay type: cell-based
Method: Adult mice hippocampal slices were prepared according to standard procedures as described in Dunwiddie and Lynch (J. Physiol. 276:353-367. 1978). Briefly, mice were decapitated following anesthesia, the brains rapidly removed and the hippocampus dissected. Transverse hippocampal slices (400 μm thick) were cut with a McIllwain tissue slicer (Stoelting Co., Wood Dale, Ill.). Slices were pre-incubated for at least 60 min in an artificial cerebrospinal fluid (aCSF) containing (in mM) NaCl (124), KCl (3), KH2PO4 (1.25), MgSO4 (2.5), CaCl2 (3.4), NaHCO3 (26), glucose (10); and L-ascorbate (2) before being placed in a recording chamber. Slices were continuously perfused with aCSF containing no added drug, 20 μM CX546, 2 μM D, L-serine, or a combination of 20 μM CX546 and 2 μM D, L-serine. A stimulating electrode was placed in the stratum radiatum at the junction of CA3 and CA1 and a recording electrode was placed in the stratum radiatum of CA1. Baseline recording with a stimulation frequency of 0.033 Hz was done for at least 10 min. After obtaining a stable baseline for 10 min, LTP was elicited in CA1 stratum radiatum by stimulation of the Schaffer collateral pathways by using high frequency stimulation of 5 bursts of 3 pulses at 100 Hz, with the bursts delivered at the theta frequency, i.e., 5 Hz. Low frequency stimulation was resumed and responses recorded for at least 30 min.
Slopes of the extracellular postsynaptic potentials (EPSPs) were calculated and expressed as percent of the average values recorded during the 10 min baseline period. Results were averaged and expressed as means±s.e.m.
In particular, slices were prepared as cited above and EPSPs were evoked in CA1 stratum radiatum by stimulation of the Schaffer collateral pathways once every 30 seconds. At t=0, high frequency stimulation (5 bursts of 3 pulses at 100 Hz with bursts delivered at 5 Hz) was delivered, and low frequency stimulation resumed. Slopes of EPSPs were calculated and expressed as percent over the average values during the 10 minute baseline. […] The data of FIG. 3 therefore represent the means±s.e.m., of 8 slices for control conditions (●), and 6 slices for the combination of 250 μM piracetam and 2 μM D, L-serine (▪). Results were statistically significant with ANOVA with repeated measures.
Slices were incubated in control medium. LB-302 (100 μM) was added to the medium at t=20 min and LTP was induced as in Example 1 by using high frequency stimulation of 5 bursts of 3 pulses at 100 Hz, with the bursts delivered at the theta frequency, i.e., 5 Hz delivered at t=47 min.

## N[C@H](CO)C(=O)O [D-serine]
[1]; 1000 mg/kg p.o. at t=−60 min, then scopolamine 0.5 mg/kg i.p.
  reversal of scopolamine-induced impairment: statistically significant reversal of scopolamine-induced impairment
LTP
  concentration known to facilitate LTP: 10 µM

## CN1[C@@H]2C[C@@H](OC(=O)[C@H](CO)c3ccccc3)C[C@H]1[C@@H]1O[C@@H]12 [scopolamine]
[1]; scopolamine alone 0.5 mg/kg i.p. at t=−30 min
  performance (escape latency) across the 4 trials: failed to improve their performance across the 4 trials

## CC(CNS(=O)(=O)C(C)C)c1ccc(-c2ccc(N)cc2)cc1 (centres unmarked) [22h]
GluR4 flip [2]
  activity relative to LY404187: about 2 fold

## CC(CNS(=O)(=O)C(C)C)c1ccc(-c2ccc(C#N)cc2)cc1 (centres unmarked) [LY404187, N-2-(4-(cyanophenyl)phenyl)propyl-2-propanesulfonamide]
[3]
  potency relative to CX546: about 1000 times
GluR4 flip [4]
  EC50: 290 nM

## NC(=O)CN1CCCC1=O [piracetam]
[5]; piracetam 250 μM alone
  effect on the responses (EPSP slope): did not produce any significant effect
[1]; 500 mg/kg p.o. at t=−60 min, then scopolamine 0.5 mg/kg i.p.
  reversal of scopolamine-induced learning impairment: trend towards a reversal of scopolamine-induced learning impairment, although this effect did not reach statistical significance

## NC(CO)(CC1=CCN(Cc2ccccc2)CC1)C(=O)O (centres unmarked) [LB-302, 2-amino-3-(1-benzyl-1,2,3,6-tetrahydro-pyridin-4-yl)-2-hydroxymethyl-propionic acid]
[5]; LB-302 100 μM
  LTP amplitude: dramatic increase in LTP amplitude
  baseline response: small increase in baseline response

## NC(CO)C(=O)O (racemic) [D, L-serine]
[5]; 2 μM D, L-serine alone
  levels of potentiation / responses (EPSP slope) as compared to control slices: did not modify the levels of potentiation; also recorded: did not produce any significant effect
